Holding throughout (assay type): in vivo
Assay [1] concerns wild-type mice (both male and female). Nature of the assay: Drinking in the Dark binge-like ethanol drinking. Conditions: 2 mg/kg i.p. for 10 days, 30 min before session, 20% ethanol, both sexes. The protocol:
Since UNC0642 blocked stress-potentiated ethanol drinking in mice, as show above, we next tested whether UNC0642 could alter binge-like ethanol drinking in both sexes. Wild-type mice (both male and female) were given ethanol for 1 week in a “Drinking in the Dark” paradigm (Rhodes et al., 2005), a well-established alcohol model that is similar to binge-drinking in humans. Both male and female mice were given a single bottle of 20% ethanol in their home cage for 2 hours per day for 3 days. No alternative bottle of water was given in this experiment. On the 4th day, the access to the bottle was extended to 4 hours to model a binge-drinking session. After the first week, mice were split into even groups and were injected with UNC0642 (2 mg/kg, i.p.) or vehicle for 10 days 30 minutes before each drinking session began. Mice were tested for changes in baseline drinking and binge drinking for 2 weeks. […] Our data detected the well-documented sex differences in alcohol intake in these assays, but there was no significant interaction between sex and UNC0642 treatment.

Another assay has as its system C57BL/6J mice. Nature of the assay: Two-bottle choice ethanol drinking (non-stressed) under systemic UNC0642. On the procedure:
Animal Care. Adult male C57BL/6J mice (Jackson Laboratory, Bar Harbor, Me.) were singly housed in a climate-controlled environment (21° C.) on a 12h light-dark cycle. Animals were habituated to the housing environment for at least 7 days prior to use in experiments, and had food and water ad libitum. All drinking and behavioral experiments were performed during the dark cycle as described below, and were approved by the MUSC Institutional Animal Care and Use Committee (IACUC) in facilities accredited by the American Association for the Accreditation of Laboratory Animal Care (AAALAC). All procedures were conducted in accordance with the guidelines established by the National Institutes of Health and the National Research Council.
Systemic G9A inhibitor administration and stress-potentiated drinking. […] Mice were then divided into 2 even groups and given chronic injections of either vehicle or 4 mg/kg UNC0642 for 2 weeks similar to a previous in vivo study in mice (Wang et al., 2018). Next, following 3 days of withdrawal, control mice were injected with 5 mg/kg U50,488 only and chronic treated mice were given both U50,488 and UNC0642 in the same injection 30 minutes before the session. This test was repeated again the following day and then only vehicle injections were given to all mice for the next 3 days before two-bottle choice testing. Finally, after another 3 day withdrawal, an acute injection of UNC0642+U50,488 was given to the naïve control group while U50,488 alone was administered to the chronic UNC0642 group 30 minutes before drinking.
Systemic EHMT2/G9A Inhibition Suppresses Stress-induced Ethanol Drinking Since reducing EHMT2/G9A levels in the NAc blocked stress-regulated ethanol drinking in mice, we tested whether systemic delivery of a specific EHMT2/G9A methyltransferase inhibitor, UNC0642 (Liu et al, 2013), could block stress-potentiated ethanol drinking. Wild-type mice were allowed to drink ethanol for 2 weeks prior to repeated, daily injections of UNC0642 (4 mg/kg; i.p.) given 30 minutes prior to the 2-bottle choice sessions (FIG. 5A). […]

Assay [2] has as its system wild-type mice (both male and female). Nature of the assay: Elevated plus maze (anxiety-like behavior). On the procedure: These same mice were tested on a 5-minute elevated plus maze protocol at 1-3 days after their final drinking session. 30-60 minutes following an i.p. injection of either 0, 1, 2, or 4 mg/kg UNC0642, mice were allowed to freely explore the open and closed arms of the elevated plus maze. Less anxious mice typically explore the open arms more quickly and spend more time exploring the open arms. […] No statistically significant effects were observed on the time spent in the open arms, as UNC0642 had no effect on open arms time in the elevated plus maze (see FIG. 7D; One-Way ANOVA, F3,42=0.7372, p=0.5359, 1 outlier removed from the 1 mg/kg group with a Grubbs test) or on the number of entries into the open arms, meaning that UNC0642 had no effect on the number of open arm entries in the elevated plus maze (FIG. 7E; One-Way ANOVA, F3,42=1.396, p=0.2573, 1 outlier removed from the 0 mg/kg group with a Grubbs test). […] Thus, in some embodiments, it can be particularly useful for treating individuals with co-morbid psychiatric diseases and/or disorders and AUD/SUD.

As to `COc1cc2c(NC3CCN(C(C)C)CC3)nc(N3CCC(F)(F)CC3)nc2cc1OCCCN1CCCC1` [UNC0642, 2-(4,4-Difluoropiperidin-1-yl)-6-methoxy-N-[1-(propan-2-yl)piperidin-4-yl]-7-[3-(pyrrolidin-1-yl)propoxy]quinazolin-4-amine], the “single-bottle alcohol drinking, baseline 2 hour sessions” value in assay [1] (FIG. 8A) is on record as “no effect”. Besides, the “binge alcohol drinking, 4-hour binge sessions” value in assay [1] (FIG. 8B) is given as “no effect”. Also, the “ethanol drinking during the first week of daily UNC0642 injections (week 3)” value in the assay with C57BL/6J mice (4 mg/kg i.p. daily, 30 min before 2-bottle choice session, vs vehicle, FIG. 5B) is recorded as “significant reduction”. For the same molecule, the “ethanol intake in the second week of daily drug treatments (week 4)” value with C57BL/6J mice (4 mg/kg i.p. daily, vs vehicle control, FIG. 5B) is “no difference”. Further, the “baseline two-bottle choice alcohol drinking during daily UNC0642 injections” value in the assay with C57BL/6J mice (1, 2 or 4 mg/kg i.p. daily, male and female mice, weeks 3-5, FIG. 7A) was “no effect”. For the same molecule, the “time spent in the open arms of the elevated plus maze” value in assay [2] (1, 2, 4 mg/kg i.p., FIG. 7D) was “no effect”. In assay [2] (1, 2, 4 mg/kg i.p., FIG. 7E), the “number of open arm entries in the elevated plus maze” value is “no effect”. Moreover, the “latency to explore the open arms of the elevated plus maze” value in assay [2] (all 3 doses (1, 2, 4 mg/kg i.p.), 30-60 min after injection, 5-minute test, both sexes, FIG. 7C) was “reduced the latency”.

These data come from patent publication US20230218631A1 (priority 2020, published 2023).
